# According to US20210010086A1, “MNK BIOMARKERS AND USES THEREOF” (eFFECTOR Therapeutics, Inc., priority 2015, published 2021):
# Legend:
# [1] = tested on: eIF4E phosphorylation (p-eIF4E); assay: Immunoblotting of eIF4E phosphorylation in TMD8 cells; assay type: cell-based, human
# Protocol: (§1) TMD8 human diffuse large B-cell lymphoma line was cultured in RPMI media supplemented with penicillin G (100 U/ml), streptomycin (100 μg/ml), 10% FBS in a humidified atmosphere of 5% CO2 maintained at 37° C. • (b) Drug Treatment
# (§2) TMD8 cells were seeded prior to drug treatment. The following day, cells were treated with either DMSO (vehicle control) or MNK inhibitor (Compound 107) at the appropriate dose and time. • (c) Immunoblotting
# (§3) Cells were spun down and washed with PBS and lysed in 1× RIPA buffer (Thermo Fisher) for 15 min at 4° C. Lysates were sonicated briefly and clarified by centrifugation for 15 min at 14,000 rpm and supernatants were collected. Protein concentration in the soluble fraction was determined by BCA protein assay (Thermo Scientific). 20 μg of protein were resolved on 4-20% Bis-Tris gradient gel (Invitrogen) and transferred to nitrocellulose membrane. The resulting blots were blocked for 1 hr at room temperature with Odyssey blocking solution (LI-COR) and then incubated with anti-phospho-eIF4E (Millipore), anti-eIF4E (Santa Cruz), anti-CCND3 (Cell Signaling) or anti-IRF7 (Cell Signaling) at 4° C. overnight. I3-actin was used as a loading control. […] The blots were then washed and scanned, specific proteins were detected by using the LI-COR Odyssey infrared imager. • (d) Non-Radioactive Nascent Protein Synthesis Assay
# [2] = tested on: Cyclin D3; assay: Immunoblotting of cyclin D3 protein in TMD8 cells; assay type: cell-based, human; settings: increasing concentrations, 48 hours
# Protocol: as §1, §2, §3
# [3] = tested on: IRF7; assay: Immunoblotting of IRF7 protein in TMD8 cells; assay type: cell-based, human; settings: 48 hours, FIG. 6
# Protocol: as §1, §2, §3
# [4] = tested on: TMD8 cells; assay: Non-radioactive nascent protein synthesis assay (AHA incorporation); assay type: cell-based, human
# Protocol: as §1, §2
# Newly synthesized proteins were detected by using the CLICK-IT Biotin Protein Analysis Detection Kit (Life Technologies; C33372) according to the manufacturer's protocol. Briefly, cells were rinsed with PBS once and incubated in methionine-free media for 30 min in the presence of the compound before being pulsed with the nonradioactive azide-containing methionine analogue AHA for 2 hrs. Cell lysates were then collected for the labeling reactions. The newly synthesized, AHA-incorporated protein was crosslinked to alkyne-derivatized biotin by a copper (I)—catalyzed cycloaddition (CLICK-IT) according to the manufacturer's instructions (Life Technologies). Following the labeling reactions, proteins were precipitated and quantified and subsequently subjected to immunoblotting analysis. Anti-streptavidin-HRP was used to detect newly synthesized proteins that contained biotin-conjugated AHA. Amount of newly synthesized proteins can be quantified by densitometry. • (e) Polysome Profiling
# [5] = tested on: TMD8 cells; assay: Polysome profiling; assay type: cell-based, human; settings: 0.3 or 10 μM, 3 or 48 hours
# Protocol: TMD8 human diffuse large B-cell lymphoma line was cultured in RPMI media supplemented with penicillin G (100 U/ml), streptomycin (100 μg/ml), 10% FBS in a humidified atmosphere of 5% CO2 maintained at 37° C. • (b) Drug Treatment TMD8 cells were seeded prior to drug treatment. The following day, cells were treated with either DMSO (vehicle control) or MNK inhibitor (Compound 107) at the appropriate dose and time. • (c) Immunoblotting Cells were washed with cold PBS supplemented with cycloheximide and lysed with 1× mammalian cell lysis buffer for 10 minutes on ice. Lysates were clarified by centrifugation for 10 minutes at 14,000 rpm and supernatants were collected. The clarified lysate was loaded onto a 10-50% sucrose gradient containing 0.1 mg/ml cycloheximide (gradients were prepared using a BioComp Gradient Station) and centrifuged at 40,000 rpm for 2 hours at 4° C. using a SW40Ti rotor in a BECKMAN COULTER Optima L8-[…] ultra centrifuge. Polysome fractions were isolated using the BioComp Gradient Station. • (f) Ribosome Profiling
# [6] = tested on: TMD8 cells; assay: Ribosome profiling (translational rate RPF, translational efficiency, mRNA); assay type: cell-based, human; settings: for # Genes Down Regulated / # Genes Up Regulated: 10 μM
# Protocol: as §1, §2
# Ribosomal profiling allows for measurement of changes in transcription and translation on a genome-wide basis accompanying inhibition of MNK with Compound 107 treatment of human DLBCL cells. Ribosome profiles of the Compound 107 treated TMD8 cells (about 3×10^6 cells/10 cm plate were harvested for ribosome profiling following drug treatment) were prepared and analyzed for changes in translational efficiencies with respect to potential disease-associated cellular changes accompanying MNK inhibition.
# Briefly, cells were washed with cold PBS supplemented with cycloheximide and lysed with 1× mammalian cell lysis buffer for 10 minutes on ice. Lysates were clarified by centrifugation for 10 minutes at 14,000 rpm and supernatants were collected. Cell lysates were processed to generate ribosomal protected fragments and total mRNA according to the instructions included with the ARTSEQ Ribosome Profiling Kit (Illumina). Sequencing of total RNA (RNA) and of ribosome-protected fragments of RNA (RPF) was carried out using RNA-Seq methodology according to the manufacturer's instructions (Illumina). To analyze the ribosomal profiles, RNA-Seq reads were processed with tools from the FASTX-Toolkit (fastq quality trimmer, fastx clipper and fastx trimmer). Unprocessed and processed reads were evaluated for a variety of quality measures using FastQC. Processed reads were mapped to the human genome using Tophat. Gene-by-gene assessment of the number of fragments strictly and uniquely mapping to the coding region of each gene was conducted using HTSeq-count, a component of the HTSeq package. Differential analyses of Compound 107 treatment of TMD8 cells were carried out with the software packages DESeq for transcription (RNA counts) and translational rate (RPF counts) and BABEL (Olshen 2013) for translational efficiency based upon ribosomal occupancy (RPF counts) as a function of RNA level (RNA counts). The Log2 fold change in translational efficiency (TE) between drug treated and control is determined from the Log2 fold change difference in RPF and RNA values (drug treated versus to control).
# Genes with low counts in either RPF or RNA were excluded from differential analyses. Biological process classification was done using Gene Ontology term analysis.
# TMD8 cells were treated with DMSO or Compound 107 (0.3 or 10 μM) and cell lysates from two biological replicates were collected after 3 or 48 hours after treatment. The cell lysates were divided into two fractions and processed to quantitate the drug effects on the total mRNA (transcriptome) or RNase digested to generate the ribosome protected fragments (translatome). The raw sequencing counts were analyzed using DESeq analysis to determine differential expression or differential ribosome occupancy between DMSO and Compound 107 treatment and are reported as the loge fold change. Quantitation of the ribosome protected fragments (RPF) directly reflects the extent that a given transcript is bound by ribosomes and is a measure of the drug effects on translational rate.
# Loge fold change in TE values are calculated from the difference in loge fold change in translational rate (RPF) between drug treated and control, and the loge fold change in total mRNA (drug treated vs. control). Evaluation of TE results in normalizing translation changes to transcript abundance. The statistical significance for TE values was determined using Babel software which was developed for assessing the significance of changes in translational regulation between conditions.
# [7] = tested on: TMD8 cells; assay: Proliferation of TMD8 cells; assay type: cell-based; settings: Homo sapiens
# [8] = tested on: TMD8 cells; assay: Cell survival of TMD8 cells; assay type: cell-based, human; settings: increasing concentrations, data not shown
# [9] = tested on: LAG-3; assay: LAG-3 protein expression in TMD8 cells; assay type: cell-based, human; settings: data not shown
# [10] = tested on: activated T cells; assay: Cell surface PD-1 and LAG-3 on CD3/CD28 activated T cells; assay type: cell-based
# [11] = tested on: TMD8 cells; assay: Cytokine/chemokine protein expression in TMD8 cells; assay type: cell-based, human
# [12] = tested on: CD3/CD28 activated T cells; assay: Cytokines/chemokines in CD3/CD28 activated T cells; assay type: cell-based
# [13] = tested on: eIF4F complex; assay: eIF4G bound to eIF4E (eIF4F complex) in TMD8 cells; assay type: cell-based, human; settings: increased concentrations
# [14] = 3 hour, Translational Efficiency
# [15] = 3 hour, Translational Rate (RPF)
# [16] = 48 hour, Translational Efficiency
# [17] = 48 hour, Translational Rate (RPF)
compound,measurement,setting,value
Cc1cc(Nc2cc(N)ncn2)c(=O)n2c1C(=O)NC21CCCCC1.Cl [Compound 107],EC50,"[1]; Homo sapiens, TMD8 cell line, study report ECB-003, read-out: EC50 for inhibition of p-eIF4E",0.0097 µM
same,inhibition of eIF4E phosphorylation (western blot),"[1]; TMD8 cells, 0.3-10 μM, 3 or 48 hours",essentially complete inhibition
same,cyclin D3 protein level,[2],reduction in cyclin D3
same,IRF7 at the protein level,[3],decreased
same,global protein synthesis rates,[4]; 10 μM for 48 hours,modest reduction
same,global protein synthesis,[4]; 0.3 or 10 μM for 3 hours and 0.3 μM for 48 hours,no impact
same,global protein synthesis,[4]; 3 hour treatment duration,negligible effects
same,polysome to monosome distribution,[5],not observed to alter
same,# Genes Down Regulated,[6]; [14],24
same,# Genes Up Regulated,[6]; [14],27
same,# Genes Down Regulated,[6]; [15],58
same,# Genes Up Regulated,[6]; [15],64
same,# Genes Down Regulated,[6]; [16],31
same,# Genes Up Regulated,[6]; [16],15
same,# Genes Down Regulated,[6]; [17],123
same,# Genes Up Regulated,[6]; [17],92
same,number of the 123 MNK-sensitive genes also down regulated at the mRNA expression level,"[6]; 48 hours, log2≤−0.75, p-value <0.01",51
same,number of genes selectively down regulated at the translational level in the absence of substantial transcript changes,"[6]; 48 hours, log2≤−0.75, p-value <0.05",27
same,translational efficiency of 3 hour gene set at 300 nM compared with 10 μM,"[6]; TMD8 cells, 3 hours, FIG. 7",equal or lesser extent
same,PD-1 translationally down regulated,"[6]; TMD8 cells, p-value=0.033, below significance cutoff",~2 fold
same,EC50,[7],3.3 µM
same,cell survival,[8],promoted cell survival
same,expression of LAG-3 at the protein level,[9],selective decrease
same,cell surface levels of the immune checkpoint inhibitors PD-1 and LAG-3,[10]; CD3/CD28 activated T cells,reduction
same,levels of PD-1 on the surface of activated T cells,[10]; data not shown,reduced
same,"cytokines evaluated (TNFα, IL6, IL10)",[11]; DLBCL cell line TMD8,modulation of one or more of the cytokines evaluated
same,"cytokine/chemokine biomarkers (CXCL10, IL6 and IL10) at the protein expression level",[11]; data not shown,down regulated
same,"select cytokines/chemokines (TNFα, IL10, CXCL10)",[12],reduction
same,eIF4G bound to eIF4E,[13],decrease
